Active and inactive are the calls of the source. Cut-off read from the data, not from the text of the source, for most assays here: actives have a measured EC50 and inactives only a lower limit.
Tests used:
H9c2 = test: cells; format: functional, cell-based; conditions: Rattus norvegicus, H9c2, Myocardium;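 note: confirmatory concentration-response retest of ultra-high-throughput screening hits for modulation of myocardial damage; cell death induced by hydrogen peroxide oxidative stress; compound pretreatment for 60 min then peroxide exposure for 2 h; potency is for protecting the cells against peroxide damage rather than for killing them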
[1] = luciferase reporter signal suppression in cells – H4 neuroglioma cells, luminescence, dose response (AID 1990); format: functional, cell-based
[2] = Luminescence Cell-Based Dose Response HTS to Identify Inhibitors of 5'UTR Stem-Loop Driven Prion Protein mRNA Translation in H4 Neuroglioblastoma Cells. [Related pubchem assays: 1827 (Project Summary), 1813 (Primary HTS)]; format: functional
[3] = alpha-synuclein stem-loop luciferase translation blockers – H4 neuroglioma cells, luminescence, confirmation (AID 1988); format: functional, cell-based
[4] = molecular target: T1, Heat shock factor protein 1 (Mus musculus, UniProt P38532); test: enhancement of HSF1-driven luciferase signal – cell-based, NIH3T3, luminescence, dose retest, confirmation (AID 435004); format: functional;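 note: stress induced by proteasome inhibitor MG132 added 30 min after compound; luciferase reporter driven by HSF1 response element in NIH3T3 cells; actives raise luminescence as potentiators of the MG132 stress response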
T1 sequence (P38532 whole entry): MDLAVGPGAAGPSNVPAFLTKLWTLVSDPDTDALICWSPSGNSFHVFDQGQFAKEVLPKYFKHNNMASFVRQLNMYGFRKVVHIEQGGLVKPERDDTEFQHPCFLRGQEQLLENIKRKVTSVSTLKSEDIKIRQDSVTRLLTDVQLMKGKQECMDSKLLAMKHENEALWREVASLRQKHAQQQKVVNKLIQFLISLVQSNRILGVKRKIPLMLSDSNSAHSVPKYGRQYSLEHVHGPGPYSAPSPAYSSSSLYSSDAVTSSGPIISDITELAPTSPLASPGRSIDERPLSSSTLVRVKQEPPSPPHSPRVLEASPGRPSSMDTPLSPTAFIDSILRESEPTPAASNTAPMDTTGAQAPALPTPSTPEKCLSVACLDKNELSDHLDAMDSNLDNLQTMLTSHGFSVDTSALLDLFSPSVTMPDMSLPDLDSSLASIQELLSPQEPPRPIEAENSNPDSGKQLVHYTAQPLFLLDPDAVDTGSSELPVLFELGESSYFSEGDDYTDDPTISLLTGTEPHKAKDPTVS

[5] = molecular target: T1, Heat shock factor protein 1; test: decrease of HSF1-responsive luciferase luminescence – cell-based, NIH3T3, dose retest, confirmation (AID 2382); format: functional;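 note: NIH3T3 fibroblasts with HSF1-driven luciferase reporter stressed by proteasome inhibitor MG132; luminescence from HSF1-driven luciferase expression after 8 hours of MG132 stress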
Paired box protein Pax-8 = Paired box protein Pax-8 (Homo sapiens, UniProt Q06710); test: PAX8 transcriptional activity inhibition in RMG-I – RMG-I cells, luciferase, cherry-pick, dose response (AID 687027); format: functional, cell-based;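 note: luciferase reporter driven by Pax8 target thyroperoxidase promoter measured by SteadyGlo luminescence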
[6] = system: Streptococcus sp. 'group A'; test: Streptococcus pyogenes SK(-)GAS viability under kanamycin – luminescence, BacTiterGlo, confirmation, counter-screen for streptokinase expression inhibitor project, dose response (AID 1900); format: functional, organism-based
Streptococcus = test: GAS UMAA2166 growth inhibition – luminescence, BacTiterGlo, counter-screen for streptokinase expression inhibitor project, dose response (AID 1915); format: functional, organism-based;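 note: potency for reduction of bacterial viability or growth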
[7] = molecular target: Luciferin 4-monooxygenase (Photinus pyralis, UniProt P08659); test: inhibition of purified Photinus pyralis luciferase – biochemical, luminescence, dose response (AID 1891)
[8] = Luminescence Cell-Based Dose Confirmation HTS to Identify Inhibitors of Platelet Dense Granule Release. [Related pubchem assays: 1663 (Primary HTS), 1678 (Summary of Project)]; format: functional

Sequence of Luciferin 4-monooxygenase (P08659 whole entry): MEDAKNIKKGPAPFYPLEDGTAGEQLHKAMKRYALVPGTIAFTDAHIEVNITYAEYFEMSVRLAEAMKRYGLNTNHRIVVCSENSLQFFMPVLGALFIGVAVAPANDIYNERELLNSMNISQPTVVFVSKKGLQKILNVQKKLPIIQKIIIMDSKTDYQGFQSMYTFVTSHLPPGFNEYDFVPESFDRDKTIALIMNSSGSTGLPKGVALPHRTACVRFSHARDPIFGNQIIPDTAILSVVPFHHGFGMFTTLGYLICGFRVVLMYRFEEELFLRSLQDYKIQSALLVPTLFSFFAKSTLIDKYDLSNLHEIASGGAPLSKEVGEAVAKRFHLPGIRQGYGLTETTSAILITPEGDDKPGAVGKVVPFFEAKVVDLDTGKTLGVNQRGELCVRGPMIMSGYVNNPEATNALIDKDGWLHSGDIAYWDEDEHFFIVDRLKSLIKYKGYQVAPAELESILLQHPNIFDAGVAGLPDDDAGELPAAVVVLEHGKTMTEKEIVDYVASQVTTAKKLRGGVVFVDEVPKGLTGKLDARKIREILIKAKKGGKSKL
Sequence of Paired box protein Pax-8 (Q06710 whole entry): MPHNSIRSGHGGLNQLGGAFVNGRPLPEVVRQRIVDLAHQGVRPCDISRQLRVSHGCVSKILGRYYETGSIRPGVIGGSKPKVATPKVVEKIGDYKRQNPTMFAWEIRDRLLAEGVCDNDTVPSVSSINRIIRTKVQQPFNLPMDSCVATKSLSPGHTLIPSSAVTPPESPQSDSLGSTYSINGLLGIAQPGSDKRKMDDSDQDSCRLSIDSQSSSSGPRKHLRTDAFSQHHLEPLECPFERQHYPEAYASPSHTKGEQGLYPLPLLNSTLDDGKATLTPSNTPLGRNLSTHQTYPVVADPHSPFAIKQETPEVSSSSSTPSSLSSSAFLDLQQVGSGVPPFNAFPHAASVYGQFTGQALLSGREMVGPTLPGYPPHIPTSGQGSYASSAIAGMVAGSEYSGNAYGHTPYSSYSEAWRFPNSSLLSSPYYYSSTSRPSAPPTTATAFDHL

c1ccc(N2CCOCC2)c(Nc2nc3ccccc3n3cnnc23)c1
IC50 (H9c2): > 79 µM (inactive)

COc1ccc(OCC(O)Cn2c(Nc3cccc(C)c3)nc3c2c(=O)n(C)c(=O)n3C)cc1 (configuration not stated)
IC50 (H9c2): 10.1 µM (active)

Cc1ccc(NC(=O)CN(C)C(S)=NC2CC2)cc1
EC50 [1]: > 120 µM (not active)
EC50 [2]: > 120 µM (not active)
EC50 [3]: > 120 µM (not active)

Cc1cccc(OCC(=O)Nc2ccc3c(c2)nc(CCN2CCCCC2)n3C)c1
EC50 [4]: > 260 µM (inactive)

O=C(CN1CCN(c2ccccn2)CC1)Nc1ccc([N+](=O)[O-])cc1C(=O)Nc1ccccc1F
IC50 (H9c2): > 79 µM (inactive)

O=C(Nc1cnn(Cc2ccc(F)cc2)c1)c1cc(-c2ccco2)on1
EC50 [5]: > 195 µM (not active)

CC(=O)c1ccc(OCC(O)CN2CCN(Cc3ccc4c(c3)OCO4)CC2)cc1 (configuration not stated)
EC50 [5]: > 195 µM (not active)

O=C(O)C1CCCCC1C(=O)Nc1cccc(C(=O)N2CCCCC2)c1 (configuration not stated)
EC50 [5]: > 195 µM (not active)

O=C(c1ccco1)N1N=C(c2ccc(Br)cc2)CC1(O)C(F)(F)F (configuration not stated)
AC50 (Paired box protein Pax-8): 27.1 µM (active)

COc1cccc(CC2(CO)CCN(S(=O)(=O)c3ccc(OC)cc3OC)CC2)c1
EC50 [5]: > 195 µM (not active)

CCc1ccccc1N(CC(=O)NCc1ccco1)C(=O)CCC(=O)Nc1ccccn1
EC50 [5]: 35.8 µM (active)

Cc1cccc(-[n+]2c(C)cc(C)c3c(=O)[nH]c(=O)[nH]c32)c1
EC50 [4]: > 260 µM (inactive)

COc1cc2c(cc1OC)CN(C(=O)CNS(=O)(=O)c1ccc(C)c(C)c1)CC2
EC50 [1]: > 120 µM (not active)
EC50 [2]: > 120 µM (not active)
EC50 [3]: > 120 µM (not active)

CCOc1ccc(S(=O)(=O)NN=C(S)Nc2ccc(Br)cc2)cc1
EC50 [4]: > 260 µM (inactive)

CCOc1ccc(S(=O)(=O)N2CCC(C(=O)N3CCOCC3)CC2)cc1C
EC50 [1]: 16.4 µM (active)
EC50 [2]: > 120 µM (not active)
EC50 [3]: > 120 µM (not active)

Cc1ccc(OCC(=O)Nc2nc(-c3ccccn3)cs2)c(C)c1
EC50 [6]: 1.08 µM (active)
EC50 (Streptococcus): 4.62 µM (active)
IC50 (H9c2): > 79 µM (inactive)

CCN(CC)C(=O)c1[nH]cnc1C(=O)NCC(=O)OCc1ccccc1
IC50 (H9c2): 6.99 µM (active)

Cc1ccccc1NC(S)=NNC(=O)c1csc2c1CCC(C)C2 (configuration not stated)
EC50 [5]: < 0.16 µM (active)

CC1CCN(C(c2ccc(N(C)C)cc2)c2nnnn2Cc2ccccc2)CC1 (configuration not stated)
EC50 [4]: > 260 µM (inactive)

O=C(COC(=O)CCc1nc(O)c2ccccc2n1)NC(c1ccccc1)c1ccccc1
IC50 (H9c2): > 79 µM (inactive)

Cc1ccc(C)c(OCCn2cc(/C=C(\C#N)C(=O)NCc3ccco3)c3ccccc32)c1
EC50 [1]: > 120 µM (not active)
EC50 [2]: 17.1 µM (active)
EC50 [3]: 25.1 µM (active)

COc1cc2c3c(c1OC)C1(C=CC(=NO)C=C1)CC3N(C(C)=O)CC2 (configuration not stated)
EC50 [1]: > 120 µM (not active)
EC50 [2]: > 120 µM (not active)
EC50 [3]: > 120 µM (not active)

O=C(Cn1[nH]c(=O)c2ccccc2c1=O)N1CC=C(c2ccccc2)CC1
IC50 (H9c2): > 79 µM (inactive)

CC1CN(C(=O)C(C)N2C(=O)c3ccccc3C2=O)CC(C)O1 (configuration not stated)
EC50 [5]: 33.4 µM (active)

COc1ccccc1NC(=O)N(Cc1ccco1)Cc1cc2ccc(C)c(C)c2nc1O
EC50 [1]: > 60 µM (not active)
EC50 [2]: 27.6 µM (active)
EC50 [3]: 11 µM (active)
EC50 [7]: > 112 µM (not active)
EC50 [8]: > 112 µM (not active)
EC50 [4]: > 260 µM (inactive)

— ChEMBL document CHEMBL1201862, “PubChem BioAssay data set” (2004)
